Measurements: ChEMBL document CHEMBL3885861, “Open TG-GATES”

Species: Rattus norvegicus
Assay: Open TG-GATES - Regimen: Single
Format: toxicity, organism-based, Sprague-Dawley
Set-up: regimen Single, gender Male, age 6 weeks
Conditions: in vivo, ip, route intraperitoneal injection; for Bas / Eos / Ht / Lym / MCHC / MCV / Mono / Neu / PT / Plat / RBC / Ret / WBC / APTT / Fbg / Hb / MCH: tissue Blood; for KIDNEY_L / KIDNEY_R / KIDNEY_TOTAL: tissue Kidney; for LIVER: tissue Liver; for ALP / ALT / AST / BUN / CRE / DBIL / IP / K / LDH / PL / RALB / TBIL / TC / TG / TP / gamma-GTP / GLC / Ca / Na: tissue Plasma
[1] = 0 mg/kg, 3 h, dose 0 ug/Kg, dose level Control
[2] = 0 mg/kg, 6 h, dose 0 ug/Kg, dose level Control
[3] = 0 mg/kg, 9 h, dose 0 ug/Kg, dose level Control
[4] = 0 mg/kg, 24 h, dose 0 ug/Kg, dose level Control
[5] = 0.01 mg/kg, 3 h, dose 10 ug/Kg, dose level Low
[6] = 0.01 mg/kg, 6 h, dose 10 ug/Kg, dose level Low
[7] = 0.01 mg/kg, 9 h, dose 10 ug/Kg, dose level Low
[8] = 0.01 mg/kg, 24 h, dose 10 ug/Kg, dose level Low

Substance: LPS
- TERMINAL_BW [1]: 194.6 g
- Bas [1]: 0.3%
- Eos [1]: 0.7%
- Ht [1]: 40.7%
- Lym [1]: 72%
- MCHC [1]: 32.8%
- MCV [1]: 63.3 fL
- Mono [1]: 4%
- Neu [1]: 21.3%
- PT [1]: 15.7 s
- Plat [1]: 123.5 x10_4/uL
- RBC [1]: 644.3 x10_4/ul
- Ret [1]: 9.4%
- WBC [1]: 91.5 x10_2/uL
- KIDNEY_L [1]: 0.9 g
- KIDNEY_R [1]: 0.9 g
- KIDNEY_TOTAL [1]: 1.8 g
- LIVER [1]: 8.6 g
- ALP [1]: 1094.7 IU/L
- ALT [1]: 41.7 IU/L
- AST [1]: 78.3 IU/L
- BUN [1]: 8.7 mg/dL
- CRE [1]: 0.2 mg/dL
- DBIL [1]: 0.01 mg/dL
- IP [1]: 9.2 mg/dL
- K [1]: 4 meq/L
- LDH [1]: 110 IU/L
- PL [1]: 136.3 mg/dL
- RALB [1]: 2.5 g/dL
- TBIL [1]: 0.0467 mg/dL
- TC [1]: 76 mg/dL
- TG [1]: 41.3 mg/dL
- TP [1]: 5.3 g/dL
- gamma-GTP [1]: 1 IU/L
- TERMINAL_BW [2]: 195.4 g
- APTT [2]: 18.1 s
- Bas [2]: 0%
- Eos [2]: 0.3%
- Fbg [2]: 298.7 mg/dL
- Hb [2]: 12.9 g/dL
- Ht [2]: 39.5%
- Lym [2]: 71.3%
- MCHC [2]: 32.6%
- MCV [2]: 65.8 fL
- Mono [2]: 2.3%
- Neu [2]: 25%
- PT [2]: 15.7 s
- Plat [2]: 114.9 x10_4/uL
- RBC [2]: 601.3 x10_4/ul
- Ret [2]: 9.6%
- WBC [2]: 101.7 x10_2/uL
- KIDNEY_L [2]: 0.9 g
- KIDNEY_R [2]: 0.9 g
- KIDNEY_TOTAL [2]: 1.7 g
- LIVER [2]: 7.9 g
- ALP [2]: 1269.3 IU/L
- ALT [2]: 37.7 IU/L
- AST [2]: 75.7 IU/L
- BUN [2]: 7.3 mg/dL
- CRE [2]: 0.2 mg/dL
- DBIL [2]: 0.01 mg/dL
- GLC [2]: 178.3 mg/dL
- IP [2]: 10 mg/dL
- K [2]: 3.7 meq/L
- LDH [2]: 74 IU/L
- PL [2]: 138.7 mg/dL
- RALB [2]: 2.5 g/dL
- TBIL [2]: 0.0433 mg/dL
- TC [2]: 79.3 mg/dL
- TG [2]: 24.7 mg/dL
- TP [2]: 5.4 g/dL
- gamma-GTP [2]: 1 IU/L
- TERMINAL_BW [3]: 191.3 g
- APTT [3]: 17.1 s
- Bas [3]: 0%
- Eos [3]: 1%
- Fbg [3]: 304.3 mg/dL
- Ht [3]: 38.4%
- Lym [3]: 63.3%
- MCHC [3]: 32.8%
- Mono [3]: 2%
- Neu [3]: 33.7%
- Plat [3]: 116.1 x10_4/uL
- RBC [3]: 624 x10_4/ul
- Ret [3]: 8.1%
- WBC [3]: 71.4 x10_2/uL
- KIDNEY_L [3]: 0.9 g
- KIDNEY_R [3]: 0.9 g
- KIDNEY_TOTAL [3]: 1.8 g
- LIVER [3]: 7 g
- ALP [3]: 1080.7 IU/L
- ALT [3]: 48 IU/L
- AST [3]: 79 IU/L
- BUN [3]: 8.3 mg/dL
- CRE [3]: 0.2 mg/dL
- Ca [3]: 10 mg/dL
- DBIL [3]: 0.0033 mg/dL
- GLC [3]: 165 mg/dL
- IP [3]: 9.5 mg/dL
- K [3]: 3.8 meq/L
- LDH [3]: 53.7 IU/L
- PL [3]: 124.7 mg/dL
- RALB [3]: 2.4 g/dL
- TBIL [3]: 0.0467 mg/dL
- TC [3]: 73.3 mg/dL
- TG [3]: 13.3 mg/dL
- TP [3]: 5.2 g/dL
- gamma-GTP [3]: 1 IU/L
- TERMINAL_BW [4]: 209.1 g
- Bas [4]: 0.3%
- Eos [4]: 1.3%
- Fbg [4]: 302.3 mg/dL
- Hb [4]: 12.9 g/dL
- Ht [4]: 39.4%
- Lym [4]: 76.3%
- MCH [4]: 21 pg
- MCHC [4]: 32.8%
- MCV [4]: 64 fL
- Mono [4]: 3.7%
- Neu [4]: 17.3%
- PT [4]: 15.2 s
- Plat [4]: 115.4 x10_4/uL
- RBC [4]: 616.3 x10_4/ul
- Ret [4]: 8.6%
- WBC [4]: 115.5 x10_2/uL
- KIDNEY_L [4]: 0.9 g
- KIDNEY_R [4]: 0.9 g
- KIDNEY_TOTAL [4]: 1.8 g
- LIVER [4]: 9.7 g
- ALP [4]: 1572.7 IU/L
- ALT [4]: 48.3 IU/L
- AST [4]: 78 IU/L
- BUN [4]: 15 mg/dL
- CRE [4]: 0.2 mg/dL
- DBIL [4]: 0.01 mg/dL
- GLC [4]: 170.7 mg/dL
- IP [4]: 8.6 mg/dL
- K [4]: 4.4 meq/L
- LDH [4]: 86.7 IU/L
- PL [4]: 171.3 mg/dL
- RALB [4]: 2.6 g/dL
- TBIL [4]: 0.0533 mg/dL
- TC [4]: 98.7 mg/dL
- TG [4]: 55.3 mg/dL
- TP [4]: 5.7 g/dL
- gamma-GTP [4]: 1 IU/L
- TERMINAL_BW [5]: 192 g
- Bas [5]: 0%
- Eos [5]: 0%
- Fbg [5]: 249 mg/dL
- Hb [5]: 12.9 g/dL
- Lym [5]: 66%
- MCH [5]: 21 pg
- MCHC [5]: 32.9%
- MCV [5]: 63.9 fL
- Mono [5]: 2.3%
- Neu [5]: 30.3%
- PT [5]: 15.6 s
- Plat [5]: 106.2 x10_4/uL
- RBC [5]: 614.3 x10_4/ul
- Ret [5]: 9.4%
- WBC [5]: 59.5 x10_2/uL
- KIDNEY_L [5]: 0.9 g
- KIDNEY_R [5]: 0.9 g
- KIDNEY_TOTAL [5]: 1.8 g
- LIVER [5]: 8.5 g
- ALP [5]: 1371 IU/L
- ALT [5]: 39.3 IU/L
- AST [5]: 80.7 IU/L
- BUN [5]: 9.3 mg/dL
- CRE [5]: 0.2 mg/dL
- DBIL [5]: 0.0033 mg/dL
- GLC [5]: 151.7 mg/dL
- IP [5]: 9.1 mg/dL
- K [5]: 3.9 meq/L
- LDH [5]: 87.7 IU/L
- PL [5]: 141.3 mg/dL
- RALB [5]: 2.4 g/dL
- TBIL [5]: 0.0433 mg/dL
- TC [5]: 75.3 mg/dL
- TG [5]: 50.7 mg/dL
- TP [5]: 5.2 g/dL
- gamma-GTP [5]: 0.7 IU/L
- TERMINAL_BW [6]: 188.9 g
- APTT [6]: 20.9 s
- Bas [6]: 0%
- Eos [6]: 1%
- Fbg [6]: 308 mg/dL
- Ht [6]: 40.2%
- Lym [6]: 27%
- MCH [6]: 21 pg
- MCV [6]: 63.3 fL
- Mono [6]: 1%
- Neu [6]: 71%
- Plat [6]: 84.5 x10_4/uL
- RBC [6]: 634.3 x10_4/ul
- Ret [6]: 7.8%
- WBC [6]: 67.1 x10_2/uL
- KIDNEY_L [6]: 0.9 g
- KIDNEY_R [6]: 0.9 g
- KIDNEY_TOTAL [6]: 1.7 g
- LIVER [6]: 7.6 g
- ALP [6]: 1287.3 IU/L
- ALT [6]: 58.7 IU/L
- AST [6]: 96.7 IU/L
- BUN [6]: 8.3 mg/dL
- CRE [6]: 0.2 mg/dL
- Ca [6]: 9.9 mg/dL
- DBIL [6]: 0.0167 mg/dL
- GLC [6]: 150.7 mg/dL
- IP [6]: 9.5 mg/dL
- K [6]: 3.9 meq/L
- LDH [6]: 75.3 IU/L
- Na [6]: 139.7 meq/L
- PL [6]: 154.3 mg/dL
- RALB [6]: 2.5 g/dL
- TBIL [6]: 0.0667 mg/dL
- TC [6]: 91.7 mg/dL
- TG [6]: 27.3 mg/dL
- TP [6]: 5.4 g/dL
- gamma-GTP [6]: 1.7 IU/L
- TERMINAL_BW [7]: 187.9 g
- APTT [7]: 16.6 s
- Bas [7]: 0%
- Eos [7]: 0%
- Fbg [7]: 373 mg/dL
- Ht [7]: 40.9%
- Lym [7]: 58.3%
- MCHC [7]: 33%
- MCV [7]: 64.5 fL
- Mono [7]: 2%
- Neu [7]: 38.7%
- PT [7]: 16 s
- Plat [7]: 105.1 x10_4/uL
- RBC [7]: 633.7 x10_4/ul
- Ret [7]: 8.7%
- WBC [7]: 86.6 x10_2/uL
- KIDNEY_L [7]: 0.9 g
- KIDNEY_R [7]: 0.8 g
- KIDNEY_TOTAL [7]: 1.7 g
- LIVER [7]: 7.1 g
- ALP [7]: 1456.3 IU/L
- ALT [7]: 37 IU/L
- AST [7]: 77.3 IU/L
- BUN [7]: 6.7 mg/dL
- CRE [7]: 0.2 mg/dL
- DBIL [7]: 0.0067 mg/dL
- GLC [7]: 162.7 mg/dL
- IP [7]: 9.8 mg/dL
- K [7]: 3.6 meq/L
- LDH [7]: 61 IU/L
- Na [7]: 143.7 meq/L
- PL [7]: 151 mg/dL
- RALB [7]: 2.5 g/dL
- TBIL [7]: 0.0567 mg/dL
- TC [7]: 89 mg/dL
- TG [7]: 21 mg/dL
- TP [7]: 5.4 g/dL
- gamma-GTP [7]: 1 IU/L
- TERMINAL_BW [8]: 198.5 g
- Bas [8]: 0%
- Eos [8]: 1%
- Fbg [8]: 435.3 mg/dL
- Hb [8]: 13.6 g/dL
- Lym [8]: 66.3%
- MCH [8]: 21 pg
- MCHC [8]: 32.7%
- MCV [8]: 64.2 fL
- Mono [8]: 2.3%
- Neu [8]: 29%
- PT [8]: 14.6 s
- Plat [8]: 77.7 x10_4/uL
- RBC [8]: 646.7 x10_4/ul
- Ret [8]: 7.3%
- WBC [8]: 85.5 x10_2/uL
- KIDNEY_L [8]: 0.9 g
- KIDNEY_R [8]: 0.9 g
- KIDNEY_TOTAL [8]: 1.8 g
- LIVER [8]: 9.1 g
- ALP [8]: 2203 IU/L
- ALT [8]: 39.3 IU/L
- AST [8]: 71.7 IU/L
- BUN [8]: 16.3 mg/dL
- CRE [8]: 0.2 mg/dL
- DBIL [8]: 0.01 mg/dL
- GLC [8]: 189 mg/dL
- IP [8]: 8.8 mg/dL
- K [8]: 4.5 meq/L
- LDH [8]: 77.3 IU/L
- PL [8]: 168 mg/dL
- RALB [8]: 2.6 g/dL
- TBIL [8]: 0.0633 mg/dL
- TC [8]: 94.7 mg/dL
- TG [8]: 52.3 mg/dL
- TP [8]: 5.6 g/dL
- gamma-GTP [8]: 1 IU/L
- TERMINAL_BW (0.3 mg/kg, 3 h, dose 300 ug/Kg, dose level Middle): 194.5 g
